Source: US9713613B2, “Methods and compositions for the treatment of cancer and related hyperproliferative disorders” (priority 2007, dated 2017)

Tests used:
[1] = tested on: DU145 cells; experiment: Oligonucleotide microarray analysis (Affymetrix) of treated DU145 cells; assay type: cell-based, human; parameters: dose or concentration left out as unconfirmed; settings: DU145, 6 hrs
Protocol: Gene expression profile comparison of the drug-treated and untreated cells might reveal specific molecular pathways affected by fatostatin A. DU145 cells were treated with fatostatin A or DMSO alone, and extracted mRNA samples were analyzed by Affimetrix DNA microarrays mapping 33,000 genes (Table 1).
DU145 prostate cancer cells were treated with […] of fatostatin A or DMSO alone in the presence of 1 μg/mL of IGF1 for 6 hrs in a serum free medium, total RNA was extracted in a TRI reagent (Molecular Research Center) and further isolated by RNeasy Mini Kit (Qiagen). Purified mRNA was analyzed in Baylor College of Medicine Microarray Core Facility by Affymetrix Human Genome U133 Plus 2.0 Array consisting of almost 45,000 probe sets representing more than 39,000 transcripts derived from approximately 33,000 well-substantiated human genes (Affymetrix, Inc.).
As described herein, fatostatin inhibits the insulin-induced adipogenesis of 3T3-L1 cells and the serum-independent growth of DU145 cells (Choi et al., 2003). Gene expression profiles of drug-treated and untreated cells were compared to gain information about specific molecular pathways affected by fatostatin. DU145 cells were treated with fatostatin or DMSO alone, and the extracted mRNA samples were analyzed by Affymetrix DNA microarrays mapping 33,000 genes. Of those genes (all of which are available at the National Center for Biotechnology Information's GenBank database on the world wide web), transcription levels of 63 genes decreased at least 35% in response to fatostatin treatment (Table 5). Thirty-four of the affected genes were directly associated with fat or sterol synthesis, such as genes encoding biosynthetic enzymes, and 18 of the affected genes have been reported to be controlled by SREBPs (Horton et al., 2003). Downregulation of the affected SREBP-responsive genes was confirmed by RT-PCR experiments.
Oligonucleotide microarray analysis. DU145 prostate cancer cells were treated with […] of fatostatin or DMSO alone in the presence of 1 μg/mL of IGF1 for 6 hrs in a serum free medium, total RNA was extracted in a TRI reagent (Molecular Research Center) and further isolated by RNeasy Mini Kit (Qiagen). Purified mRNA was analyzed in Baylor College of Medicine Microarray Core Facility by Affymetrix Human Genome U133 Plus 2.0 Array consisting of almost 45,000 probe sets representing more than 39,000 transcripts derived from approximately 33,000 well-substantiated human genes (Affymetrix, Inc.).

[2] = tested on: mice (129Sv background); experiment: mice, two-week treatment, normal diet; assay type: in vivo, mouse; settings: two weeks
Protocol: Food intake was similar between both groups (3.8 and 3.5 g/mouse/day for treated and control mice, respectively).
In the second protocol, two groups of male mice (n=5) were treated daily for two weeks with either 30 mg/kg fatostatin A or 10% DMSO in PBS. Food intake and body weight were measured daily. At the end of the experiments, the mice were briefly fasted for 4-5 hrs, and their blood was withdrawn for determination of serum constituents. The mice were then sacrificed, and their livers were quickly removed and ground to powder in liquid nitrogen. The powdered tissues were suspended in 10 ml of PBS containing 0.1 mM PMSF, 5 mM benzamidine, and 5 mg/mL protease inhibitor cocktail (Roche), homogenized using Polytron (3×30 Sec, at a high speed), and sonicated briefly to degrade DNA. The extracts were clarified by centrifugation at 16,000×g for 20 min. The samples were then subjected to western blot analysis using commercially available antibodies against FAS and SREBP-1. FAS and ACC activities were determined as described earlier (Mao et al., 2006).

## CCCc1cc(-c2nc(-c3ccc(C)cc3)cs2)ccn1 [Compound 1, 2-propyl-4-(4-p-tolylthiazol-2-yl)pyridine]
[1]; :AA872727
  transcription level (fold), famesyl-diphosphate farnesyltransferase: 0.5359
[1]; A1189359
  transcription level (fold), mevalonate (diphospho) decarboxylase: 0.3299
[1]; AB032261
  transcription level (fold), stearoyl-CoA desaturase (delta-9-desaturase): 0.5743
[1]; AF096304
  transcription level (fold), Homo sapiens putative sterol reductanse SR-1 (TM7SF2): 0.6156
[1]; AF098865
  transcription level (fold), squalene epoxidase: 0.5
[1]; AF167438
  Decreased fold, Homo sapiens androgen-regulated short-chain dehydrogenaseneductase 1: 0.6598
  transcription level (fold), Homo sapiens androgen-regulated short-chain dehydrogenasereductase 1 (ARSDR1): 0.6598
[1]; AI670819
  transcription level (fold), Cullin 4B: 0.7071
[1]; AI861942
  transcription level (fold), low density lipoprotein receptor (familial hypercholesterolemia): 0.5743
[1]; AI971281
  transcription level (fold), ATP citrate lyase: 0.5743
[1]; AK000162
  Decreased fold, acetyl-CoA synthetase: 0.5359
  transcription level (fold), acetyl-CoA synthetase: 0.5359
[1]; AL049699
  transcription level (fold), malic enzyme 1, NADP(+)-dependent, cytosolic: 0.7071
[1]; AL518627
  transcription level (fold), 3-hydroxy-3-methylglutaryl-Coenzyme A reductase: 0.5
[1]; AL565516
  transcription level (fold), human glucose transporter pseudogene: 0.7071
[1]; AL565749
  transcription level (fold), Tubulin, beta 4: 0.6598
[1]; AL575074
  transcription level (fold), tubulin, alpha 1 (testis specific): 0.4665
[1]; AU144855
  transcription level (fold), cytochrome P450, subfamily I (dioxin-inducible), polypeptide 1: 0.5
[1]; AW084510
  transcription level (fold), lanosterol synthase (2,3-oxidosqualene-lanosterol cyclase): 0.5743
[1]; AW235051
  transcription level (fold), cytochrome b5 outer mitochondrial membrane precursor: 0.5743
[1]; B3855983
  transcription level (fold), acetyl-Coenzyme A carboxylase alpha: 0.5743
[1]; BC000245
  transcription level (fold), NAD(P) dependent steroid dehydrogenase-like; H105e3: 0.4665
[1]; BC000408
  transcription level (fold), acetyl-Coenzyme A acetyltransferase 2 (acetoacetyl Coenzyme A thiolase): 0.5743
[1]; BC000408.1
  Decreased fold, acetyl-Coenzyme A acetyltransferase 2: 0.5743
[1]; BC002654
  transcription level (fold), Homo sapiens, similar to tubulin, beta4: 0.6598
[1]; BC005247
  transcription level (fold), isopentenyl-diphosphate delta isomerase: 0.4665
[1]; BC005838
  transcription level (fold), Homo sapiens, tubulin, beta5: 0.6598
[1]; BE300521
  transcription level (fold), insulin induced gene 1: 0.3299
[1]; BF978872
  transcription level (fold), dihydrolipoamide S-acetyltransferase: 0.6598
[1]; BG252490
  transcription level (fold), DNAJ (Hsp40) homolog, subfamily B, member 4: 0.7071
[1]; D63807.1
  Decreased fold, lanosterol synthase: 0.6156
  transcription level (fold), lanosterol synthase (2,3-oxidosqualene-lanosterol cyclase): 0.6156
[1]; D80010.1
  transcription level (fold), lipin 1: 0.5
[1]; D85181.1
  Decreased fold, sterol-05-desaturase: 0.5
  transcription level (fold), sterol-C5-desaturase (fungal ERG3, delta-5-desaturase)-like: 0.5
[1]; D89053.1
  transcription level (fold), Fatty-acid-Coenzyme A ligase, long-chain 3: 0.7071
[1]; L32662.1
  transcription level (fold), prostaglandin E2 receptor: 0.5
[1]; NM000859.1
  Decreased fold, 3-hydroxy-3-methylglutaryl-Coenzyme A reductase (HMG CoA R): 0.5
[1]; NM 0002130.1
  Decreased fold, 3-hydroxy-3-methylglutaryl-Coenzyme A synthase 1 (HMG CoA S): 0.3536
[1]; NM002461.1
  Decreased fold, mevalonate decarboxylase (MVD): 0.3299
[1]; NM 003129.2
  Decreased fold, squalene epoxidase: 0.5
[1]; NM 005542.1
  Decreased fold, Insulin induced gene 1 (INSIG1): 0.3299
[1]; NM005931.1
  Decreased fold, fatty acid desaturase 1: 0.6598
[1]; NM006579.1
  Decreased fold, emopamil-bindingprotein (sterol isomerase): 0.6156
[1]; NM0019312
  Decreased fold, dihydrolipoamide S-acetyltransferase: 0.6598
[1]; NM_00010
  transcription level (fold), cytochrome P450, subfamily I (dioxin-inducible), polypeptide 1: 0.3299
[1]; NM_00043
  transcription level (fold), mevalonate kinase (mevalonic aciduria): 0.5
[1]; NM_00047
  transcription level (fold), nuclear receptor subfamily O, group B, member 1: 0.5359
[1]; NM_00052
  transcription level (fold), low density lipoprotein receptor (familial hypercholesterolemia): 0.6156
[1]; NM_00078
  transcription level (fold), cytochrome P450, 51 (lanosterol 14-alpha-demthylase): 0.5359
[1]; NM_00085
  transcription level (fold), 3-hydroxy-3-methylglutaryl-Coenzyme A reductase: 0.4665
[1]; NM_00109
  transcription level (fold), ATP citrate lyase: 0.7071
[1]; NM_00136
  transcription level (fold), dehydrocholesterol reductase: 0.5743
[1]; NM_00200, Hs.284244
  transcription level (fold), fibroblast growth factor 2 (basic): 0.5
[1]; NM_00200, Hs.77393
  transcription level (fold), farnesyl diphosphate synthase: 0.6598
[1]; NM_00213
  transcription level (fold), 3-hydroxy-3-methylglutaryl-Coenzyme a synthase 1 (soluble): 0.3536
[1]; NM_00243
  transcription level (fold), meningioma (disrupted in balanced translocation) 1: 0.6156
[1]; NM_00270
  transcription level (fold), Homo sapiens periplakin (PPL): 0.6156
[1]; NM_00352
  transcription level (fold), H2B histone family, member Q: 0.5
[1]; NM_00367
  transcription level (fold), basic heliz-loop-helix domain containing, class B, 2: 0.5743
[1]; NM_00381
  transcription level (fold), tumor necrosis factor (ligand) superfamily, member9: 0.5743
[1]; NM_000431.1
  Decreased fold, mevalonate kinase (MVK): 0.5
[1]; NM_000527.2
  Decreased fold, low density lipoprotein receptor (LDLR): 0.5743
[1]; NM_00547
  transcription level (fold), UDP-N-acetylglucosamine-2-epimerase-N-acetrylmannosamine kinase: 0.5743
[1]; NM_00589
  transcription level (fold), Isocitrate dehydrogenase 1 (NADP+), soluble: 0.7071
[1]; NM_00593
  transcription level (fold), fatty acid desaturase 1: 0.6598
[1]; NM_00603
  transcription level (fold), lipase, endothelial: 0.5359
[1]; NM_00654
  transcription level (fold), IGF-II mRNA-binding protein 3: 0.4665
[1]; NM_00657
  transcription level (fold), emopamil-binding protein (sterol isomerase): 0.6156
[1]; NM_00662
  transcription level (fold), serum-inducible kinase: 0.5743
[1]; NM_000664.1
  Decreased fold, acetyl-Coenzyme A carboxylase alpha: 0.5743
[1]; NM_001096.1
  Decreased fold, ATP citrate lyase: 0.5743
[1]; NM_01637
  transcription level (fold), hydroxysteroid (17-beta) dehydrogenase 7: 0.4665
[1]; NM_002004.1
  Decreased fold, farnesyl pyrophosphate syntlietase: 0.6598
[1]; NM_004457.2
  Decreased fold, fatty-acid-Coenzyme A ligase long chain 3: 0.7071
[1]; NM_004462.1
  Decreased fold, famesyl-diphosphate famesyltransferase 1: 0.5359
[1]; NM_005063.1
  Decreased fold, stearoyl-CoA desaturase (SCD): 0.5743
[1]; NM_014676
  transcription level (fold), seladin-1: 0.6598
[1]; NM_016371.1
  Decreased fold, hydroxysteroid (17-beta) dehydrogenase 7: 0.4665
[1]; NM_022977.1
  Decreased fold, fatty-acid-Coenzyme A ligase long chain 4: 0.7071
[1]; S70123.1
  transcription level (fold), low density lipoprotein receptor (familial hypercholesterolemia): 0.7071
[1]; U18197.1
  transcription level (fold), ATP citrate lyase: 0.5743
[1]; U40053
  transcription level (fold), cytochrome P450, 51 (lanosterol 14-alpha-demethylase): 0.4665
[1]; U59479.1
  transcription level (fold), pinin, desmosome associated protein: 0.5359
[2]; 30 mg/kg daily, normal diet, control no change
  loss of body weight: 10%
[2]; 30 mg/kg daily
  decrease of FAS activity and its protein level in liver: about 30%
[2]; control 3.5
  food intake: 3.8 g/mouse/day
